The values below come from patent publication US12521393B2, “Cytotoxicity targeting chimeras for CCR2-expressing cells” (GLAXOSMITHKLINE INTELLECTUAL PROPERTY DEVELOPMENT LIMITED, priority 2021, dated 2026).

The subject of assay [1] is CCR2 expressing cells (CD11b+Ly6c+Hi) in peripheral blood. Description: In vivo depletion assay, flow cytometry of peripheral blood (Example 201). Further details: species or system human CCR2 knock-in mice (C57 background). The conditions noted are these: hCCR2 knock-in mice, IV 0.1 mpk compound + 10 mpk anti-cotinine antibody (SEQ ID NO: 13/14), peripheral blood at 48 hr. The procedure, abridged:
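Mice dosed with compound formulated in saline/DMSO/PBS, with anti-cotinine antibody (rabbit variable region, mouse IgG2a Fc) where required, pre-incubated 30 min at room temperature. Terminal peripheral blood RBC-lysed, Fc-blocked, stained for CD45, CD3, CD11b, Ly6C, human CCR2 and 7AAD; percent depletion of CD11b+Ly6c+Hi cells determined by flow cytometry.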

The target of assay [2] is anti-cotinine antibody (SEQ ID NO: 11/12, rabbit variable region with human IgG1 Fc DE mutation). Description: SPR binding of anti-cotinine antibody to ARM compounds, Biacore T200, 37° C. (Example 202). The conditions noted are these: SPR Biacore T200, 37° C., pH 7.4, antibody SEQ ID NO: 11/12 captured on protein A; Kd in molar. In outline:
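Antibody captured on a protein A chip; ARM compounds injected at 100 μL/min (200 s association, 2000 s dissociation), 3-fold 5-point series from 200 nM, at 37 °C in HEPES pH 7.4 buffer with 0.005% P20 and 1% DMSO. Double-referenced sensorgrams fit 1:1 for kon, koff, Kd (koff/kon), residence time (1/koff); pKd averaged across runs.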
A general note: Surface plasmon resonance follows binding to a sensor surface in real time, without labels.

The target in assay [3] is human alpha1 nicotinic acetylcholine (nACh) receptor (Homo sapiens, UniProt P02708). Description: Nicotinic acetylcholine receptor antagonism assay, IONFlux automated patch clamp (Example 203). The class given is cell-based. The conditions noted are these: for IC50: antagonism of ACh-stimulated human alpha1 nAChR current, patch clamp; for Emax at 100 µM: maximum percentage antagonism at maximum concentration tested 100 μM; for Emax at 10 µM: maximum percentage antagonism at maximum concentration tested 10 μM. In outline: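 Cells expressing human α1 nAChR were incubated with a compound dose response (top 10 μM or 100 μM), then stimulated with ACh (10 mM), and peak current was read by automated patch clamp. % inhibition was taken against ACh-alone control, corrected for vehicle and run-down, and fit non-linearly for IC50; runs were averaged.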
On the technique in general: Patch clamp records ionic current or voltage across a cell membrane.

Sequence of human alpha1 nicotinic acetylcholine (nACh) receptor (P02708 21-457): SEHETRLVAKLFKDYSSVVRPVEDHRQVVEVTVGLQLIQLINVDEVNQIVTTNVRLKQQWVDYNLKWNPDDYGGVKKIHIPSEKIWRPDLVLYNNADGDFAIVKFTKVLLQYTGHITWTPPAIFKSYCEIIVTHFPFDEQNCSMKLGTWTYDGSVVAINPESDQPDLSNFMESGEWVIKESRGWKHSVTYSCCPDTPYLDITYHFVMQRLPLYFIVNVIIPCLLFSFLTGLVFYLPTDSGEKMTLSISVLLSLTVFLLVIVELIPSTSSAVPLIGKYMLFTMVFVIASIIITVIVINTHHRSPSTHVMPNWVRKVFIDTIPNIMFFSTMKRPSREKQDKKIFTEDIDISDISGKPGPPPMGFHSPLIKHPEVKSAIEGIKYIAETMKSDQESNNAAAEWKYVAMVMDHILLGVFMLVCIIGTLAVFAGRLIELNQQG
Sequence of human alpha1 nicotinic acetylcholine (nACh) receptor (P11230 24-501 partner): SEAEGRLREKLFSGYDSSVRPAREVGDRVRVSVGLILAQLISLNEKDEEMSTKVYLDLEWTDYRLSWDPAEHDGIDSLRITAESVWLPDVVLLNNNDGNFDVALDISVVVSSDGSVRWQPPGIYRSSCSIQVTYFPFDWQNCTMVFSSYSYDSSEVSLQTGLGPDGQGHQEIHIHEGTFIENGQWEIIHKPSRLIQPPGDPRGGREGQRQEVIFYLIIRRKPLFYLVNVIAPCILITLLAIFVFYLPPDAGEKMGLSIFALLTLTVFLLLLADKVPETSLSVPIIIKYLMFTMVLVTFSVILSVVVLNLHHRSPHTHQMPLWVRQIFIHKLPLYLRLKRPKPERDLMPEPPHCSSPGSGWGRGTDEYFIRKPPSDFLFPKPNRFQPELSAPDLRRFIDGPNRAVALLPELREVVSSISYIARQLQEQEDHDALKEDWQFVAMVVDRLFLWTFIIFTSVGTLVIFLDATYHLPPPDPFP
Sequence of human alpha1 nicotinic acetylcholine (nACh) receptor (Q07001 22-517 partner): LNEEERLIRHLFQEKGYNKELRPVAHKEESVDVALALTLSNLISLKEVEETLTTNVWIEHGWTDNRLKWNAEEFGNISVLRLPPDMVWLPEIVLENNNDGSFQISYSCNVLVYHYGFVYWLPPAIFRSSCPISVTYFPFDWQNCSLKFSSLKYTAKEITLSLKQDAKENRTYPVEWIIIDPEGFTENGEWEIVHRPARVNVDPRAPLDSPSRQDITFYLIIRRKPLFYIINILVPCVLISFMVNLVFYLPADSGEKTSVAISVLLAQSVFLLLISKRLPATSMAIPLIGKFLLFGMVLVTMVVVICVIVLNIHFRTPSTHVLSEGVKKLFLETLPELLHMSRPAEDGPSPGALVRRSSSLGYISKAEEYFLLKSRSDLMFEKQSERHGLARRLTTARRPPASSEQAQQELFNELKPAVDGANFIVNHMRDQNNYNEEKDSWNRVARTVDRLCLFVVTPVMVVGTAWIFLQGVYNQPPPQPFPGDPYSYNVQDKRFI

In general, IC50 refers to the concentration needed to halve the response being measured. Low readings indicate greater potency, high ones weaker potency. On to `CC(C)N(C)[C@@H]1CC[C@H](N2CC[C@H](Nc3ncnc4ccc(C(F)(F)F)cc34)C2=O)[C@H](NC(=O)[C@H]2CC[C@H](NC(=O)CCCO[C@H]3CC[C@H](OCCNC(=O)[C@H]4CC(=O)N(C)[C@@H]4c4cccnc4)CC3)CC2)C1` [Example 1, (2S,3S)-N-(2-(((1R,4S)-4-(4-(((1R,4R)-4-(((1R,2S,5R)-5-(Isopropyl(methyl)amino)-2-((S)-2-oxo-3-((6-(trifluoromethyl)quinazolin-4-yl)amino)pyrrolidin-1-yl)cyclohexyl)carbamoyl)cyclohexyl)amino)-4-oxobutoxy)cyclohexyl)oxy)ethyl)-1-methyl-5-oxo-2-(pyridin-3-yl)pyrrolidine-3-carboxamide], for which, in assay [1], the “% Depletion of CCR2 expressing cells” value is 88.5%. Besides, in assay [2], the “pKd of Antibody for ARM Compound of Formula (I)” value (“pKd of Antibody” below) is listed as 9.654. In addition, the IC50 in assay [3] came to 84.6 µM. Also, the Emax at 100 µM in assay [3] (read-out: Maximum Response) is 25.6%.
The corresponding values for `CC(C)N(C)[C@@H]1CC[C@H](N2CC[C@H](Nc3ncnc4ccc(C(F)(F)F)cc34)C2=O)[C@H](NC(=O)[C@H]2CC[C@@H](NC(=O)CCCO[C@H]3CC[C@H](OCCNC(=O)[C@H]4CC(=O)N(C)[C@@H]4c4cccnc4)CC3)CC2)C1` [Example 5, (2S,3S)-N-(2-(((1R,4S)-4-(4-(((1S,4S)-4-(((1R,2S,5R)-5-(Isopropyl(methyl)amino)-2-((S)-2-oxo-3-((6-(trifluoromethyl)quinazolin-4-yl)amino)pyrrolidin-1-yl)cyclohexyl)carbamoyl)cyclohexyl)amino)-4-oxobutoxy)cyclohexyl)oxy)ethyl)-1-methyl-5-oxo-2-(pyridin-3-yl)pyrrolidine-3-carboxamide] are 91.05%, 9.19, not below 100 µM and 40.5%.
The corresponding values for `CC(C)N(C)[C@@H]1CC[C@H](N2CC[C@H](Nc3ncnc4ccc(C(F)(F)F)cc34)C2=O)[C@H](NC(=O)CCOCCNC(=O)CCCO[C@H]2CC[C@H](OCCNC(=O)[C@H]3CC(=O)N(C)[C@@H]3c3cccnc3)CC2)C1` [Example 7, (2S,3S)-N-(2-(((1r,4S)-4-(4-((2-(3-(((1R,2S,5R)-5-(Isopropyl(methyl)amino)-2-((S)-2-oxo-3-((6-(trifluoromethyl)quinazolin-4-yl)amino)pyrrolidin-1-yl)cyclohexyl)amino)-3-oxopropoxy)ethyl)amino)-4-oxobutoxy)cyclohexyl)oxy)ethyl)-1-methyl-5-oxo-2-(pyridin-3-yl)pyrrolidine-3-carboxamide] are 47%, 9.2515, 13.7 µM and 95%.
Consider `CN1C(=O)C[C@H](C(=O)NCCO[C@H]2CC[C@H](OCCCC(=O)N[C@H]3CC[C@H](C(=O)N[C@@H]4C[C@H](NC(C)(C)C)CC[C@@H]4N4CC[C@H](Nc5ncnc6ccc(C(F)(F)F)cc56)C4=O)CC3)CC2)[C@H]1c1cccnc1` [Example 10, (2S,3S)-N-(2-(((1R,4S)-4-(4-(((1R,4R)-4-(((1R,2S,5R)-5-(tert-Butylamino)-2-((S)-2-oxo-3-((6-(trifluoromethyl)quinazolin-4-yl)amino)pyrrolidin-1-yl)cyclohexyl)carbamoyl)cyclohexyl)amino)-4-oxobutoxy)cyclohexyl)oxy)ethyl)-1-methyl-5-oxo-2-(pyridin-3-yl)pyrrolidine-3-carboxamide], for which, in assay [1], the “% Depletion of CCR2 expressing cells” value was 94.9%. Further, the “pKd of Antibody” value in assay [2] came out at 9.199. This molecule came in with an IC50 in assay [3] not below 33.3 µM. Moreover, the Emax at 33.33 µM in assay [3] (maximum percentage antagonism at maximum concentration tested 33.33 μM, read-out: Maximum Response) was determined as 48%.
As to `CC(C)N(C)[C@@H]1CC[C@H](N2CC[C@H](Nc3ncnc4ccc(C(F)(F)F)cc34)C2=O)[C@H](NC(=O)[C@H]2CC[C@@H](NC(=O)CCOCCOCCNC(=O)CCNC(=O)[C@H]3CC(=O)N(C)[C@@H]3c3cccnc3)CC2)C1` [Example 16, (2S,3S)-N-(3-((2-(2-(3-(((1S,4s)-4-(((1R,2S,5R)-5-(Isopropyl(methyl)amino)-2-((S)-2-oxo-3-((6-(trifluoromethyl)quinazolin-4-yl)amino)pyrrolidin-1-yl)cyclohexyl)carbamoyl)cyclohexyl)amino)-3-oxopropoxy)ethoxy)ethyl)amino)-3-oxopropyl)-1-methyl-5-oxo-2-(pyridin-3-yl)pyrrolidine-3-carboxamide], in assay [1], the “% Depletion of CCR2 expressing cells” value was found to be 74%. In assay [2], the “pKd of Antibody” value is 9.287. Besides, in assay [3], the IC50 was not below 100 µM. Further, the Emax at 100 µM in assay [3] (read-out: Maximum Response) amounted to 47.8%.
The corresponding values for `CC(C)N(C)[C@@H]1CC[C@H](N2CC[C@H](Nc3ncnc4ccc(C(F)(F)F)cc34)C2=O)[C@H](NC(=O)[C@H]2CC[C@@H](NC(=O)CCCC(=O)NCCCOCCCNC(=O)[C@H]3CC(=O)N(C)[C@@H]3c3cccnc3)CC2)C1` [Example 18, N^1-((1S,4s)-4-(((1R,2S,5R)-5-(Isopropyl(methyl)amino)-2-((S)-2-oxo-3-((6-(trifluoromethyl)quinazolin-4-yl)amino)pyrrolidin-1-yl)cyclohexyl)carbamoyl)cyclohexyl)-N^5-(3-(3-((2S,3S)-1-methyl-5-oxo-2-(pyridin-3-yl)pyrrolidine-3-carboxamido)propoxy)propyl)glutaramide] are 88%, 9.0895, not below 100 µM and 44.9%.
For the molecule `CC(C)N(C)[C@@H]1CC[C@H](N2CC[C@H](Nc3ncnc4ccc(C(F)(F)F)cc34)C2=O)[C@H](NC(=O)[C@H]2CC[C@H](NC(=O)CCCC(=O)NCCCOCCCNC(=O)[C@H]3CC(=O)N(C)[C@@H]3c3cccnc3)CC2)C1` [Example 19, N1-((1R,4r)-4-(((1R,2S,5R)-5-(Isopropyl(methyl)amino)-2-((S)-2-oxo-3-((6-(trifluoromethyl)quinazolin-4-yl)amino)pyrrolidin-1-yl)cyclohexyl)carbamoyl)cyclohexyl)-N5-(3-(3-((2S,3S)-1-methyl-5-oxo-2-(pyridin-3-yl)pyrrolidine-3-carboxamido)propoxy)propyl)glutaramide], the “% Depletion of CCR2 expressing cells” value in assay [1] worked out at 59%. The “pKd of Antibody” value in assay [2] was 9.19. Further, in assay [3], the IC50 is not below 100 µM. Further, the Emax at 100 µM in assay [3] (read-out: Maximum Response) turned out to be 34.2%.
With `CC(C)N(C)[C@@H]1CC[C@H](N2CC[C@H](Nc3ncnc4ccc(C(F)(F)F)cc34)C2=O)[C@H](NC(=O)CCOCCOCCOCCOCCOCCNC(=O)[C@H]2CC(=O)N(C)[C@@H]2c2cccnc2)C1` [Example 40, (2S,3S)-N-(18-(((1R,2S,5R)-5-(Isopropyl(methyl)amino)-2-((S)-2-oxo-3-((6-(trifluoromethyl)quinazolin-4-yl)amino)pyrrolidin-1-yl)cyclohexyl)amino)-18-oxo-3,6,9,12,15-pentaoxaoctadecyl)-1-methyl-5-oxo-2-(pyridin-3-yl)pyrrolidine-3-carboxamide], the “pKd of Antibody” value in assay [2] was 9.4525. In assay [3], this molecule showed an IC50 not below 10 µM. In addition, the Emax at 10 µM in assay [3] (read-out: Maximum Response) amounted to 24.7%.
In the case of `CC(C)N(C)[C@@H]1CC[C@H](N2CC[C@H](Nc3ncnc4ccc(C(F)(F)F)cc34)C2=O)[C@H](NC(=O)CCOCCOCCOCCOCCOCCOCCNC(=O)[C@H]2CC(=O)N(C)[C@@H]2c2cccnc2)C1` [Example 41, (2S,3S)-N-(21-(((1R,2S,5R)-5-(isopropyl(methyl)amino)-2-((S)-2-oxo-3-((6-(trifluoromethyl)quinazolin-4-yl)amino)pyrrolidin-1-yl)cyclohexyl)amino)-21-oxo-3,6,9,12,15,18-hexaoxahenicosyl)-1-methyl-5-oxo-2-(pyridin-3-yl)pyrrolidine-3-carboxamide], the “pKd of Antibody” value in assay [2] came to 9.3615. The same molecule registered an IC50 in assay [3] not below 10 µM. Moreover, in assay [3] (read-out: Maximum Response), the Emax at 10 µM stood at 20.1%.
For `CC(C)N(C)[C@@H]1CC[C@H](N2CC[C@H](Nc3ncnc4ccc(C(F)(F)F)cc34)C2=O)[C@H](NC2CCN(C(=O)CCOCCOCCOCCOCCNC(=O)[C@H]3CC(=O)N(C)[C@@H]3c3cccnc3)CC2)C1` [Example 69, (2S,3S)-N-(15-(4-(((1R,2S,5R)-5-(Isopropyl(methyl)amino)-2-((S)-2-oxo-3-((6-(trifluoromethyl)quinazolin-4-yl)amino)pyrrolidin-1-yl)cyclohexyl)amino)piperidin-1-yl)-15-oxo-3,6,9,12-tetraoxapentadecyl)-1-methyl-5-oxo-2-(pyridin-3-yl)pyrrolidine-3-carboxamide], the “% Depletion of CCR2 expressing cells” value in assay [1] is given as 98.59%. The “pKd of Antibody” value in assay [2] is given as 9.321.
